Assay results as given in US20200129412A1, “SILICONE PAD HAVING ACTIVE INGREDIENTS FOR SKIN CARE AND AGAINST SKIN AGING” (Apricot GmbH, priority 2017, published 2020).

Test system: skin of a subject
Experiment: Drug absorption study: diffusion of stained hyaluron from silicone pad into the skin
Type: in vivo
Settings: 6 mg powdered hyaluron stained green in adhesive layer; 2 weeks of daily use on skin
Experimental: FIG. 3A depicts a silicone pad with an adhesive layer. The adhesive layer comprises 6 mg of powdered hyaluron (<20 T Dalton). […] For manufacturing a silicone pad, the adhesive layer was bonded to a silicone body. The silicone pad was applied daily to the skin of a subject for a period of 2 weeks.

concentration of hyaluron in the silicone pad after use (decrease of color): decreases markedly
distribution of hyaluron from the pad: delivered to the skin's lower layers
Substance: hyaluron
